Measurements: patent US20240148820A1 (priority 2021, published 2024)
Converted amounts (≈) assume the structure as drawn. “Also recorded” adds a separate entry of the source. Where a SMILES comes first, the peptide text is derived from it. Where no end group is shown, it is not given here.

Legend:
[1] = molecular target: Spike of SARS-CoV-2 / ACE2-human (Severe acute respiratory syndrome coronavirus 2, UniProt P0DTC2); assay type: cell-based, SARS-CoV-2 / human
[2] = tested on: A(H1N1) virus; assay type: cell-based, A/Hong Kong/415742M/2009(H1N1)
[3] = tested on: A(H1N1) virus
[4] = tested on: SARS-CoV-2; conditions: in vivo
[5] = tested on: A(H1N1) virus; parameters: species or system BALB/c mice; conditions: in vivo
[6] = tested on: SARS-CoV; parameters: species or system BALB/c mice; conditions: in vivo
[7] = tested on: SARS-CoV-2; assay type: cell-based
[8] = tested on: SARS-CoV-2; assay type: cell-based, human
[9] = tested on: SARS-CoV-2; conditions: cited from earlier work
[10] = tested on: coronavirus or influenza virus; conditions: oral inoculation or intraperitoneal injection (refs 29, 30, 39, 41); cited from earlier work
[11] = molecular target: S protein of SARS-CoV-2 (Severe acute respiratory syndrome coronavirus 2, UniProt P0DTC2); assay type: binding
[12] = tested on: A(H3N2)
[13] = tested on: FluB
[14] = tested on: turkey red blood cells; conditions: normalized to Triton X-100
[15] = tested on: SARS-CoV-2
[16] = tested on: MDCK cells; experiment: Cytotoxicity assay (MTT)
[17] = tested on: A(H1N1) virus; assay type: cell-based; conditions: virus pretreated 45 min, attached to MDCK cells 1 h

CO/C1=C\C(C)=C\[C@@H](C)[C@@H](O)[C@@H](C)C/C(C)=C/C=C/[C@H](OC)[C@@H]([C@@H](C)[C@@H](O)[C@H](C)[C@@]2(O)C[C@@H](O)[C@H](C)[C@@H](C(C)C)O2)OC1=O [bafilomycin A1]
spike-ACE2 mediated cell fusion [1]: fusion inhibition

CC[C@H](C)[C@H](NC(=O)[C@H](C)NC(=O)CNC(=O)[C@H](CC(N)=O)NC(=O)[C@H](CO)NC(=O)[C@H](Cc1ccccc1)NC(=O)[C@H](CCCNC(=N)N)NC(=O)[C@H](Cc1c[nH]cn1)NC(=O)[C@H](CS)NC(=O)[C@H](CCC(N)=O)NC(=O)[C@H](CO)NC(=O)[C@H](CC(=O)O)NC(=O)[C@H](Cc1c[nH]c2ccccc12)NC(=O)[C@H](CCCNC(=N)N)NC(=O)CNC(=O)[C@H](CC(N)=O)NC(=O)[C@@H](NC(=O)[C@@H](N)Cc1ccccc1)[C@@H](C)CC)C(=O)N[C@@H](C)C(=O)N[C@@H](CS)C(=O)N[C@@H](C)C(=O)O [U4] (H-FINGRWDSQCHRFSNGAIACA-OH; N-terminus and C-terminus assumed)
antiviral activity against A(H1N1) virus compared with Urumin [2]: more potent antiviral activity than that of Urumin | IC50 against A(H1N1) virus [3]: 6.6 µg/mL (≈ 2.8 µM)

CCN(CC)CCCC(C)Nc1ccnc2cc(Cl)ccc12 (stereo not drawn) [chloroquine]
SARS-CoV-2 replication in hamster lungs (in words) [4]: inhibited SARS-CoV-2 replication | inhibition of SARS-CoV-2 replication in hamster lungs [4]: 2 fold | A(H1N1) virus replication in mouse lungs (in words) [5]: inhibited A(H1N1) virus replication | A(H1N1) virus replication in mouse lungs, atomization inhalation [5]: could inhibit; also recorded: inhibited | 1-day prophylactic activity against A(H1N1) virus replication ([5]; mouse): could not provide 1-day prophylactic activity | inhibition of A(H1N1) virus replication in mice ([5]; mouse): 3.5 fold | inhibition of A(H1N1) virus replication, one dose before viral inoculation ([5]; mouse): 3-5 fold | SARS-CoV replication in mouse lungs, atomization inhalation [6]: could inhibit; also recorded: inhibited | 1-day prophylactic activity against SARS-CoV replication ([6]; mouse): could not provide 1-day prophylactic activity | inhibition of SARS-CoV replication, one dose before viral inoculation ([6]; mouse): 3-5 fold | antiviral activity when cells treated before or after infection [7]: significantly less antiviral activity | viral replication when treated during viral infection [7]: effectively inhibit viral replication; also recorded: more effectively inhibited viral replication | SARS-CoV-2 replication in ex vivo human lung tissues [8]: significantly inhibited SARS-CoV-2 replication | SARS-CoV-2 replication in Calu-3 cells (reference 24) [9]: cannot inhibit SARS-CoV-2 replication | coronavirus or influenza virus replication in vivo after systemic administration [10]: could not inhibit coronavirus or influenza virus replication in vivo

IPLRGAFINGRWDSQCHRFS [U5]
antiviral activity against A(H1N1) virus compared with Urumin [2]: more potent antiviral activity than that of Urumin | spike-ACE2 mediated cell fusion [1]: did not inhibit spike-ACE2 mediated fusion | binding to S protein of SARS-CoV-2 [11]: bound to S protein | effect of U5 on P16 binding to S protein [11]: reduced P16 binding to S protein; also recorded: blocked P16 binding to S protein | IC50 against A(H1N1) virus [3]: 12.9 µg/mL

RGAHIKGRWKSRCHRF [P16, RGAHIKGRWKSRCHRF]
IC50 against A(H1N1) virus [3]: 3.9 µg/mL | IC50 against A(H3N2) [12]: 1.6 µg/mL | IC50 against FluB [13]: 7.1 µg/mL | hemolysis of turkey red blood cells [14]: no significant hemolysis | IC50 for SARS-CoV-2 B.1.1.63 [15]: 3.0 µg/mL | IC50 for SARS-CoV-2 B.1.617.2 [15]: 3.9 µg/mL | IC50 for SARS-CoV-2 HKU001a [15]: 2.9 µg/mL | cytotoxicity on MDCK cells ([16]; MDCK cells treated by 1 mg ml^−1 of P16): no significant cytotoxicity | TC50 ([16]; MDCK cells, MTT, 24 h): > 1000 µg/mL

Triton X-100
viral attachment to cells (RNA copies of attached virus) [17]: significantly reduced
